Patent US20240286998A1, “F[…], ANALOGUES THEREOF, AND METHODS USING SAME” (Saint Joseph's University, priority 2021, published 2024)
pEC50: −log10 of the molar value. Counter-ions that a name gives are not always drawn. Like-named read-outs stand apart in the source and are kept apart here.

Tests used:
Serotonin 5-HT2A (human) = Serotonin 5-HT2A (human) (Homo sapiens (Human), UniProt P28223); test: 5-HT2A receptor binding, [3H]-ketanserin competition in membrane fractions; settings: 1 nM [3H]-ketanserin, Cheng-Prusoff, N=1-3
5-HT2A = 5-HT2A (Homo sapiens (Human), UniProt P28223); test: 5-HT2A Gq-mediated calcium flux functional assay; assay type: cell-based; settings: for 5-HT2A-Ca2+ FLUX Emax (% 5-HT) / EC50: IA = Inactive, N=1-3; for EC50: read-out: 5-HT2A-Ca2+ FLUX pEC50 (converted)
5-HT2B = 5-HT2B (Homo sapiens (Human), UniProt P41595); test: 5-HT2B Gq-mediated calcium flux functional assay; assay type: cell-based; settings: for 5-HT2B-Ca2+ FLUX Emax (% 5-HT) / EC50: IA = Inactive, N=1-3; for EC50: read-out: 5-HT2B-Ca2+ FLUX pEC50 (converted)
5-HT2C = 5-HT2C (Homo sapiens (Human), UniProt P28335); test: 5-HT2C Gq-mediated calcium flux functional assay; assay type: cell-based; settings: for 5-HT2C-Ca2+ FLUX Emax (% 5-HT) / EC50: IA = Inactive, N=1-3; for EC50: read-out: 5-HT2C-Ca2+ FLUX pEC50 (converted)
5-HT1A = 5-HT1A (Homo sapiens (Human), UniProt P08908); test: 5-HT1A Gi/o-mediated cAMP inhibition, GloSensor assay; assay type: cell-based; settings: for 5-HT1A-cAMP Emax (% 5-HT): cAMP inhibition, 0.2 μM isoproterenol, IA = Inactive

Sequence of 5-HT2C (P28335 whole entry, looked up): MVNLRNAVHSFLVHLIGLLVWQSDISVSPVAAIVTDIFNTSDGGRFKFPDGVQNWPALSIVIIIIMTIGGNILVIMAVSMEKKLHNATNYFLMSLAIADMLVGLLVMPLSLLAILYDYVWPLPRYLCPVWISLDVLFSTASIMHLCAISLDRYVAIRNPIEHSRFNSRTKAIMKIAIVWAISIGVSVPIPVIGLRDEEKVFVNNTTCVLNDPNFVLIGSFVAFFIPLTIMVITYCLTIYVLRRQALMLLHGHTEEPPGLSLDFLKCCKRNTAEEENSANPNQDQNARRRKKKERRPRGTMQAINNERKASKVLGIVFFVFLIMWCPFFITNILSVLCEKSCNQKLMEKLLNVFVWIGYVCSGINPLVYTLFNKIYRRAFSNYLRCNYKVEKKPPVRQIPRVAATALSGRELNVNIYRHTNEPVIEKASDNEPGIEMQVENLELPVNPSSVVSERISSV
Sequence of 5-HT2B (P41595 whole entry): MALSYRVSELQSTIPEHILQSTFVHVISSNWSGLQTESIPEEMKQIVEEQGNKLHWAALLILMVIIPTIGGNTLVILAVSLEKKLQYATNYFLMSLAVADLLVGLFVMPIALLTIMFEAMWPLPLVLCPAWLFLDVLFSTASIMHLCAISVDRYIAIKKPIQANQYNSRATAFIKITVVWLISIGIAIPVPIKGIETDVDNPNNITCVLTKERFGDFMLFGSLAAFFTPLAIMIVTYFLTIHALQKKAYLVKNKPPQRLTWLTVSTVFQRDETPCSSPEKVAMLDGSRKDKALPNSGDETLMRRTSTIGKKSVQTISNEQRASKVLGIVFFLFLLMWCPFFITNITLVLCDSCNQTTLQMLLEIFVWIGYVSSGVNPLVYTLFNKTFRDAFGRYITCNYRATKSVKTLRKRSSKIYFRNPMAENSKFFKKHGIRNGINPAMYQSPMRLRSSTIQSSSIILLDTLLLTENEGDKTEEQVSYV

## CCN(C)CC(=O)c1c[nH]c2ccc(F)cc12
other
  melting point: 160.1 to 164.8 °C

## CC(C1CC1)N(C)CCc1c[nH]c2ccc(F)cc12 (stereo not drawn) (as salt: HCl)
other
  melting point: 100.7 to 101.5 °C

## CCC(C)N(C)CCc1c[nH]c2ccc(F)cc12 (stereo not drawn) (as salt: HCl) [Example 3, N-(2-(5-fluoro-1H-indol-3-yl)ethyl)-N-methylbutan-2-amine]
other
  melting point: 136.5 to 142 °C

## CCCN(CCc1c[nH]c2ccc(F)cc12)C(C)C (as salt: HCl) [Example 4, N-(2-(5-fluoro-1H-indol-3-yl)ethyl)-N-isopropylpropan-1-amine]
other
  melting point: 155.8 to 158 °C

## CCCN(CCC)CCc1c[nH]c2ccc(F)cc12 (as salt: HCl) [Example 5, N-(2-(5-fluoro-1H-indol-3-yl)ethyl)-N-propylpropan-1-amine]
other
  melting point: 187.5 to 188 °C

## CCCN(CC)CCc1c[nH]c2ccc(F)cc12 (as salt: HCl) [Example 6, N-ethyl-N-(2-(5-fluoro-1H-indol-3-yl)ethyl)propan-1-amine]
other
  melting point: 154.5 to 155.4 °C

## C=CCN(CCc1c[nH]c2ccc(F)cc12)C(C)C (as salt: HCl) [Example 11, N-(2-(5-fluoro-1H-indol-3-yl)ethyl)-N-isopropylprop-2-en-1-amine]
other
  melting point: 132 to 134 °C

## C=CCN(CCc1c[nH]c2ccc(F)cc12)C1CCC1 (as salt: HCl) [Example 14, N-allyl-N-(2-(5-fluoro-1H-indol-3-yl)ethyl)cyclobutanamine]
other
  melting point: 196.3 to 199 °C

## C=CCN(CCc1c[nH]c2ccc(F)cc12)C(C)CC (stereo not drawn) (as salt: HCl) [compound 16, N-allyl-N-(2-(5-fluoro-1H-indol-3-yl)ethyl)butan-2-amine]
other
  melting point: 157 to 161.8 °C

## CC(C)N(CC#N)CCc1c[nH]c2ccc(F)cc12 (as salt: HCl) [compound 17, 2-((2-(5-fluoro-1H-indol-3-yl)ethyl)(isopropyl)amino)acetonitrile]
other
  melting point: 147 to 150 °C (dec.)

## CN(CCc1c[nH]c2ccc(F)cc12)C1CSC1 (as salt: HCl) [compound 20, N-(2-(5-fluoro-1H-indol-3-yl)ethyl)-N-methylthietan-3-amine]
other
  melting point: 221 to 223.3 °C

## CCC(C)N(CCc1c[nH]c2ccc(F)cc12)C(C)C (stereo not drawn) (as salt: HCl) [compound 32, N-(2-(5-fluoro-1H-indol-3-yl)ethyl)-N-isopropylbutan-2-amine]
other
  melting point: 193.7 to 195 °C

## CCCN(CC)CCc1c[nH]c2ccc(F)c(F)c12 (as salt: fumarate) [compound 21, N-(2-(4,5-difluoro-1H-indol-3-yl)ethyl)-N-ethylpropan-1-amine]
other
  melting point: 182.1 to 183.3 °C

## CC(C)N(CCc1c[nH]c2ccc(F)cc12)CC1CC1 (as salt: hydrochloride)
other
  melting point: 191 to 192.5 °C

## CCN(CCc1c[nH]c2ccc(F)cc12)C1CC1 (as salt: hydrochloride)
other
  melting point: 219.7 to 220.1 °C

## CC(C)C(C)N(C)CCc1c[nH]c2ccc(F)cc12 (stereo not drawn) (as salt: hydrochloride)
other
  melting point: 157.5 to 158.1 °C

## CCCN(CCc1c[nH]c2ccc(F)cc12)C(C)CC (stereo not drawn) (as salt: hydrochloride) [compound 22, N-(2-(5-fluoro-1H-indol-3-yl)ethyl)-N-propylbutan-2-amine]
other
  melting point: 153.2 to 155.4 °C

## C=CCN(CC)CCc1c[nH]c2ccc(F)cc12 (as salt: hydrochloride) [compound 36, N-ethyl-N-(2-(5-fluoro-1H-indol-3-yl)ethyl)prop-2-en-1-amine]
other
  melting point: 123.7 to 128.5 °C

## CCCN(CC)CCc1c[nH]c2cc(Cl)c(F)cc12 (as salt: hydrochloride) [compound 37, N-(2-(6-chloro-5-fluoro-1H-indol-3-yl)ethyl)-N-ethylpropan-1-amine]
other
  melting point: 231 to 232.6 °C

## CC(C)CN(C)CCc1c[nH]c2ccc(F)cc12 (as salt: hydrochloride) [compound 39, N-(2-(5-fluoro-1H-indol-3-yl)ethyl)-N,2-dimethylpropan-1-amine]
other
  melting point: 150 to 151.5 °C

## CC(C)N(CCc1c[nH]c2ccc(F)cc12)C1CCC1 (as salt: hydrochloride) [compound 40, N-(2-(5-fluoro-1H-indol-3-yl)ethyl)-N-isopropylcyclobutanamine]
other
  melting point: 191.6 to 193 °C

## CCN(C)CCc1c[nH]c2c(F)cc(F)cc12 (as salt: hydrochloride) [compound 69, 2-(5,7-difluoro-1H-indol-3-yl)-N-ethyl-N-methylethan-1-amine]
other
  melting point: 152.7 to 153.5 °C

## CN(CCc1c[nH]c2ccc(F)cc12)C1CC1 (as salt: hydrochloride) [compound 160, N-(2-(5-fluoro-1H-indol-3-yl)ethyl)-N-methylcyclopropanamine]
other
  melting point: 218.8 to 219.3 °C

## CCCN(CCc1c[nH]c2c(F)cccc12)C1CCC1 (as salt: hydrochloride) [compound 162, N-(2-(7-fluoro-1H-indol-3-yl)ethyl)-N-propylcyclobutanamine]
other
  melting point: 231.7 to 237.2 °C

## CCCN(CC)CCc1c[nH]c2c(F)c(F)c(F)cc12 (as salt: hydrochloride) [compound 165, N-ethyl-N-[2-(5,6,7-trifluoro-1H-indol-3-yl)ethyl]propan-1-amine]
other
  melting point: 188 to 188.8 °C

## C=CCN(CCC)CCc1c[nH]c2ccc(F)cc12 (as salt: salt) [compound 35, N-(2-(5-fluoro-1H-indol-3-yl)ethyl)-N-propylprop-2-en-1-amine]
other
  melting point: 175.1 to 177.2 °C

## CCN(CCc1c[nH]c2ccc(F)cc12)C(C)C [Example 1, N-ethyl-N-(2-(5-fluoro-1H-indol-3-yl)ethyl)propan-2-amine]
Serotonin 5-HT2A (human)
  5-HT2A pKi ± SEM: 5.95 ± 0.07
5-HT2A
  pEC50: 8.87
  5-HT2A-Ca2+ FLUX Emax (% 5-HT): 102.6 ± 0.8 % 5-HT
5-HT2B
  pEC50: 8.88
  5-HT2B-Ca2+ FLUX Emax (% 5-HT): 100.0 ± 0.6 % 5-HT
5-HT2C
  pEC50: 8.18
  5-HT2C-Ca2+ FLUX Emax (% 5-HT): 107.6 ± 2.3 % 5-HT
5-HT1A
  pEC50: 6.23
  5-HT1A-cAMP Emax (% 5-HT): 86.4 ± 2.6 % 5-HT
other
  melting point: 77.1 to 78.1 °C

## CN1CCC(c2c[nH]c3ccc(F)cc23)C1 (stereo not drawn) [compound 15, 5-fluoro-3-(1-methylpyrrolidin-3-yl)-1H-indole]
Serotonin 5-HT2A (human)
  5-HT2A pKi ± SEM: 6.98
other
  melting point: 122.8 to 125.1 °C

## CN1CCC(c2c[nH]c3cc(F)c(F)cc23)C1 (stereo not drawn) [compound 19, 5,6-difluoro-3-(1-methylpyrrolidin-3-yl)-1H-indole]
Serotonin 5-HT2A (human)
  5-HT2A pKi ± SEM: 6.92
5-HT2A
  5-HT2A-Ca2+ FLUX Emax (% 5-HT): 53.3 ± 3.6 % 5-HT
  EC50: 3.89 nM
5-HT2B
  5-HT2B-Ca2+ FLUX Emax (% 5-HT): 32.2 ± 2.2 % 5-HT
  EC50: 1.51 nM
5-HT2C
  5-HT2C-Ca2+ FLUX Emax (% 5-HT): 70.5 ± 2.3 % 5-HT
  EC50: 3.63 nM
5-HT1A
  pEC50: 5.53
  5-HT1A-cAMP Emax (% 5-HT): 113.3 ± 4.0 % 5-HT
other
  melting point: 119.5 to 120.3 °C

## CN1CCC(c2c[nH]c3c(F)cccc23)C1 (stereo not drawn) [compound 23, 7-fluoro-3-(1-methylpyrrolidin-3-yl)-1H-indole]
Serotonin 5-HT2A (human)
  5-HT2A pKi ± SEM: 6.43
5-HT2A
  5-HT2A-Ca2+ FLUX Emax (% 5-HT): 41.8 ± 1.6 % 5-HT
  EC50: 8.51 nM
5-HT2B
  5-HT2B-Ca2+ FLUX Emax (% 5-HT): 19.7 ± 0.8 % 5-HT
  EC50: 4.37 nM
5-HT2C
  5-HT2C-Ca2+ FLUX Emax (% 5-HT): 26.6 ± 1.1 % 5-HT
  EC50: 20.9 nM
5-HT1A
  pEC50: 7.65
  5-HT1A-cAMP Emax (% 5-HT): 99.2 ± 1.7 % 5-HT
other
  melting point: 129 to 132.1 °C

## CCCN(CC)CC(=O)c1c[nH]c2ccc(F)cc12 [compound 24, 2-(ethyl(propyl)amino)-1-(5-fluoro-1H-indol-3-yl)ethan-1-one]
5-HT2A
  5-HT2A-Ca2+ FLUX Emax (% 5-HT): 81.0 ± 2.4 % 5-HT
  EC50: 1410 nM
5-HT1A
  pEC50: 9.31
  5-HT1A-cAMP Emax (% 5-HT): 20.5 ± 1.4 % 5-HT
other
  melting point: 203.4 to 205.6 °C

## CN1CC(c2c[nH]c3ccc(F)cc23)C1 [compound 29, 5-fluoro-3-(1-methylazetidin-3-yl)-1H-indole]
Serotonin 5-HT2A (human)
  5-HT2A pKi ± SEM: 6.30
5-HT2C
  5-HT2C-Ca2+ FLUX Emax (% 5-HT): 28.5 ± 0.8 % 5-HT
  EC50: 49 nM
5-HT1A
  pEC50: 6.07
  5-HT1A-cAMP Emax (% 5-HT): 64.0 ± 3.5 % 5-HT
other
  melting point: 119 to 122.8 °C

## CN(CCc1c[nH]c2ccc(F)cc12)C1CCC1 [compound 51, N-(2-(5-fluoro-1H-indol-3-yl)ethyl)-N-methylcyclobutanamine]
Serotonin 5-HT2A (human)
  5-HT2A pKi ± SEM: 6.80 ± 0.02
other
  melting point: 219.4 to 219.7 °C

## CCN(C)CCc1c[nH]c2c(F)c(F)c(F)cc12 [compound 164, N-ethyl-N-methyl-2-(5,6,7-trifluoro-1H-indol-3-yl)ethan-1-amine]
Serotonin 5-HT2A (human)
  5-HT2A pKi ± SEM: 6.90 ± 0.13
5-HT2A
  pEC50: 8.19
  5-HT2A-Ca2+ FLUX Emax (% 5-HT): 76.1 ± 1.1 % 5-HT
5-HT2B
  pEC50: 8.21
  5-HT2B-Ca2+ FLUX Emax (% 5-HT): 33.2 ± 0.9 % 5-HT
5-HT2C
  pEC50: 7.73
  5-HT2C-Ca2+ FLUX Emax (% 5-HT): 89.3 ± 1.3 % 5-HT
other
  melting point: 212.1 to 212.5 °C

## CC(C)N(CCc1c[nH]c2ccc(F)cc12)C1CC1 [compound 168, N-(2-(5-fluoro-1H-indol-3-yl)ethyl)-N-isopropylcyclopropanamine]
Serotonin 5-HT2A (human)
  5-HT2A pKi ± SEM: 6.18
other
  melting point: 196.4 to 196.8 °C

## CC(CN)c1c[nH]c2ccc(F)cc12 (stereo not drawn) [compound 187, 2-(5-fluoro-1H-indol-3-yl)propan-1-amine]
Serotonin 5-HT2A (human)
  5-HT2A pKi ± SEM: 5.41
5-HT2A
  5-HT2A-Ca2+ FLUX Emax (% 5-HT): 90.7 ± 2.5 % 5-HT
  EC50: 36.3 nM
5-HT2B
  5-HT2B-Ca2+ FLUX Emax (% 5-HT): 89.0 ± 1.4 % 5-HT
  EC50: 1.26 nM
5-HT2C
  5-HT2C-Ca2+ FLUX Emax (% 5-HT): 93.6 ± 0.9 % 5-HT
  EC50: 18.6 nM
5-HT1A
  pEC50: 6.03
  5-HT1A-cAMP Emax (% 5-HT): 88.5 ± 2.8 % 5-HT
